Results: patent US20230255953A1, “USE OF ROLUPERIDONE IN PREVENTING RELAPSE IN SCHIZOPHRENIA PATIENTS” (Minerva Neurosciences, Inc., priority 2022, published 2023)

System: patients with negative symptoms of schizophrenia
Assay: Study #1 (MIN-101C03): rate of relapse
Type: in vivo, human
Conditions: for Rate of relapse (%) / Rate of relapse (number of patients): DB period, MIN-101C03
Experimental: “Time to relapse” in the DB period is defined as the number of days from Day 1 to the date of early trial termination due to relapse. […] Treatment differences in time to relapse in the DB period were analyzed using a Cox-regression model with treatment group and Baseline PANSS total score as covariates. For the analysis of the OL period, this analysis was repeated to analyze treatment differences in time to relapse in the study. For the OL period analysis, patients who were not observed to relapse in the study were censored on the date on which they ended the study. Kaplan-Meier plots of time to relapse in the DB period, OL period, and in the study were generated.
In some embodiments, for any of the methods disclosed herein, a relapse refers to a patient who is terminated early during treatment (or a study trial) due to worsening of psychosis or an adverse event or generalized symptom in Table 1.
Phase 2b Study #1 (also referred to herein as “MIN-101C03”) was a Phase 2b, double-blind (“DB”), placebo-controlled, randomized, multicenter 12-week study to evaluate the efficacy, safety, and tolerability of Roluperidone in patients ≥18 years to ≤60 years with negative symptoms of schizophrenia, followed by a 24-week open-label (“OL”) extension. The primary objective of the study was to evaluate the efficacy of Roluperidone compared to placebo in improving the negative symptoms of schizophrenia as measured by the change from Baseline in the PANSS negative factor score of the PSM (“PANSS PSM”) over 12 weeks of treatment.
The study consisted of a pretreatment screening period of up to 28 days (including washout), a 12-week, DB, placebo-controlled period, and a 24-week OL period. Eligible patients (who were symptomatically stable for at least 3 months and had scores of at least 20 on the PANSS negative subscale score) were randomized in a 1:1:1 ratio to receive oral Roluperidone (a modified-release, “MR”, formulation) 32 mg QD, Roluperidone 64 mg QD, or placebo for 12 weeks. […] During the 24-week, OL treatment extension period, patients who were initially randomized to Roluperidone 32 mg or 64 mg continued on the same dose, while patients who were initially randomized to placebo crossed over to Roluperidone 32 mg or 64 mg in a 1:1 ratio.

Substance: 1H-Isoindol-1-one,2-[ [1-[2-(4-fluorophenyl)-2-oxoethyl]-4-piperidinyl]methyl]-2,3-dihydro-, hydrochloride, hydrate (1:1:2) [Roluperidone]
- Rate of relapse (%) (32 mg): 7%
- Rate of relapse (number of patients) (32 mg): 5
- Rate of relapse (%) (64 mg): 9%
- Rate of relapse (number of patients) (64 mg): 7
- Relapse by study phase (Study #1 (n = 244), all subjects, Double-blind (12-weeks)): 11.5%
- Relapse overall (discontinued because of positive symptoms worsening) (Study #1 (n = 244), Overall (over 36 weeks)): 15.2%
- Relapse by study phase (Study #1, Open-label (over 24 weeks)): 6%
